# In ChEMBL document CHEMBL1255475, “Mutant prevention concentrations of four carbapenems against gram-negative rods” (2010):
# Experiments:
# [1] = test system: Escherichia coli; assay: Antibacterial activity against beta-lactamase-negative Escherichia coli E346 incubated up to 7 days by agar dilution method; assay type: functional; conditions: E346, 168 h
# [2] = test system: Escherichia coli; assay: Ratio of mutant prevention concentration to minimum Inhibitory concentration for beta-lactamase-positive ESBL-positive Escherichia coli E465; assay type: functional
# [3] = test system: Escherichia coli; assay: Ratio of mutant prevention concentration to minimum Inhibitory concentration for beta-lactamase-negative Escherichia coli E346; assay type: functional
# [4] = test system: Escherichia coli; assay: Ratio of mutant prevention concentration to minimum Inhibitory concentration for beta-lactamase-positive ESBL-positive Escherichia coli E459; assay type: functional
# [5] = test system: Klebsiella pneumoniae; assay: Ratio of mutant prevention concentration to minimum Inhibitory concentration for beta-lactamase-negative Klebsiella pneumoniae E361; assay type: functional
# [6] = test system: Klebsiella pneumoniae; assay: Antibacterial activity against beta-lactamase-positive ESBL-negative Klebsiella pneumoniae E509 incubated up to 7 days by agar dilution method; assay type: functional; conditions: E509, 168 h
# [7] = test system: Escherichia coli; assay: Antibacterial activity against beta-lactamase-negative Escherichia coli E344 incubated up to 7 days by agar dilution method; assay type: functional; conditions: E344, 168 h
# [8] = test system: Klebsiella pneumoniae; assay: Ratio of mutant prevention concentration to minimum Inhibitory concentration for beta-lactamase-negative Klebsiella pneumoniae E419; assay type: functional
# [9] = test system: Klebsiella pneumoniae; assay: Ratio of mutant prevention concentration to minimum Inhibitory concentration for beta-lactamase-positive ESBL-positive Klebsiella pneumoniae E476; assay type: functional
# [10] = test system: Klebsiella pneumoniae; assay: Ratio of mutant prevention concentration to minimum Inhibitory concentration for beta-lactamase-positive ESBL-positive Klebsiella pneumoniae E457; assay type: functional
# [11] = test system: Klebsiella pneumoniae; assay: Ratio of mutant prevention concentration to minimum Inhibitory concentration for beta-lactamase-positive ESBL-negative Klebsiella pneumoniae E474; assay type: functional
# [12] = test system: Escherichia coli; assay: Ratio of mutant prevention concentration to minimum Inhibitory concentration for beta-lactamase-negative Escherichia coli E347; assay type: functional
# [13] = test system: Escherichia coli; assay: Ratio of mutant prevention concentration to minimum Inhibitory concentration for beta-lactamase-positive ESBL-negative Escherichia coli E437; assay type: functional
# [14] = test system: Escherichia coli; assay: Ratio of mutant prevention concentration to minimum Inhibitory concentration for beta-lactamase-positive ESBL-positive Escherichia coli E450; assay type: functional
# [15] = test system: Klebsiella pneumoniae; assay: Ratio of mutant prevention concentration to minimum Inhibitory concentration for beta-lactamase-positive ESBL-negative Klebsiella pneumoniae E509; assay type: functional
# [16] = test system: Klebsiella pneumoniae; assay: Antibacterial activity against beta-lactamase-negative Klebsiella pneumoniae E358 incubated up to 7 days by agar dilution method; assay type: functional; conditions: E358, 168 h
# [17] = test system: Klebsiella pneumoniae; assay: Ratio of mutant prevention concentration to minimum Inhibitory concentration for beta-lactamase-negative Klebsiella pneumoniae E360; assay type: functional
# [18] = test system: Klebsiella pneumoniae; assay: Ratio of mutant prevention concentration to minimum Inhibitory concentration for beta-lactamase-negative Klebsiella pneumoniae E359; assay type: functional
# [19] = test system: Klebsiella pneumoniae; assay: Ratio of mutant prevention concentration to minimum Inhibitory concentration for beta-lactamase-positive ESBL-negative Klebsiella pneumoniae E511; assay type: functional
# [20] = test system: Escherichia coli; assay: Ratio of mutant prevention concentration to minimum Inhibitory concentration for beta-lactamase-positive ESBL-positive Escherichia coli E458; assay type: functional
# [21] = test system: Escherichia coli; assay: Ratio of mutant prevention concentration to minimum Inhibitory concentration for beta-lactamase-positive ESBL-positive Escherichia coli E446; assay type: functional
# [22] = test system: Klebsiella pneumoniae; assay: Ratio of mutant prevention concentration to minimum Inhibitory concentration for beta-lactamase-positive ESBL-negative Klebsiella pneumoniae E477; assay type: functional
# [23] = test system: Escherichia coli; assay: Ratio of mutant prevention concentration to minimum Inhibitory concentration for beta-lactamase-negative Escherichia coli E348; assay type: functional
# [24] = test system: Klebsiella pneumoniae; assay: Ratio of mutant prevention concentration to minimum Inhibitory concentration for beta-lactamase-negative Klebsiella pneumoniae E357; assay type: functional
# [25] = test system: Escherichia coli; assay: Ratio of mutant prevention concentration to minimum Inhibitory concentration for beta-lactamase-positive ESBL-negative Escherichia coli E484; assay type: functional
# [26] = test system: Escherichia coli; assay: Ratio of mutant prevention concentration to minimum Inhibitory concentration for beta-lactamase-negative Escherichia coli E425; assay type: functional
# [27] = test system: Klebsiella pneumoniae; assay: Antibacterial activity against beta-lactamase-negative Klebsiella pneumoniae E357 assessed as mutant prevention concentration after overnight incubation; assay type: functional
# [28] = test system: Acinetobacter baumannii; assay: Antibacterial activity against Acinetobacter baumannii A894 incubated up to 7 days by agar dilution method; assay type: functional; conditions: A894, 168 h
# [29] = test system: Acinetobacter baumannii; assay: Antibacterial activity against Acinetobacter baumannii A864 incubated for 24 hrs by agar dilution method; conditions: A864, 24 h
# [30] = test system: Pseudomonas aeruginosa; assay: Antibacterial activity against Pseudomonas aeruginosa P356 incubated up to 7 days by agar dilution method; assay type: functional; conditions: P356, 168 h
# [31] = test system: Acinetobacter baumannii; assay: Antibacterial activity against Acinetobacter baumannii A885 incubated up to 7 days by agar dilution method; assay type: functional; conditions: A885, 168 h
# [32] = test system: Pseudomonas aeruginosa; assay: Antibacterial activity against Pseudomonas aeruginosa P370 incubated up to 7 days by agar dilution method; assay type: functional; conditions: P370, 168 h
# [33] = test system: Pseudomonas aeruginosa; assay: Antibacterial activity against Pseudomonas aeruginosa P352 incubated up to 7 days by agar dilution method; assay type: functional; conditions: P352, 168 h
# [34] = test system: Acinetobacter baumannii; assay: Antibacterial activity against Acinetobacter baumannii A892 assessed as mutant prevention concentration after overnight incubation; assay type: functional
# [35] = test system: Acinetobacter baumannii; assay: Antibacterial activity against Acinetobacter baumannii A903 incubated up to 7 days by agar dilution method; assay type: functional; conditions: A903, 168 h
# [36] = test system: Acinetobacter baumannii; assay: Antibacterial activity against Acinetobacter baumannii A865 assessed as mutant prevention concentration after overnight incubation; assay type: functional
# [37] = test system: Acinetobacter baumannii; assay: Antibacterial activity against Acinetobacter baumannii A929 incubated up to 7 days by agar dilution method; assay type: functional; conditions: A929, 168 h
# [38] = test system: Acinetobacter baumannii; assay: Antibacterial activity against Acinetobacter baumannii A867 assessed as mutant prevention concentration after overnight incubation; assay type: functional
# [39] = test system: Acinetobacter baumannii; assay: Antibacterial activity against Acinetobacter baumannii A896 incubated for 24 h by agar dilution method; conditions: A896, 24 h
# [40] = test system: Acinetobacter baumannii; assay: Antibacterial activity against Acinetobacter baumannii A891 incubated up to 7 days by agar dilution method; assay type: functional; conditions: A891, 168 h
# [41] = test system: Acinetobacter baumannii; assay: Antibacterial activity against Acinetobacter baumannii A912 incubated for 24 h by agar dilution method; conditions: A912, 24 h
# [42] = test system: Acinetobacter baumannii; assay: Antibacterial activity against Acinetobacter baumannii A897 incubated up to 7 days by agar dilution method; assay type: functional; conditions: A897, 168 h
# [43] = test system: Pseudomonas aeruginosa; assay: Antibacterial activity against Pseudomonas aeruginosa P327 incubated up to 7 days by agar dilution method; assay type: functional; conditions: P327, 168 h
# [44] = test system: Acinetobacter baumannii; assay: Antibacterial activity against Acinetobacter baumannii A867 incubated for 24 h by agar dilution method; conditions: A867, 24 h
# [45] = test system: Acinetobacter baumannii; assay: Antibacterial activity against Acinetobacter baumannii A849 incubated for 24 h by agar dilution method; conditions: A849, 24 h
# [46] = test system: Pseudomonas aeruginosa; assay: Antibacterial activity against Pseudomonas aeruginosa P373 incubated up to 7 days by agar dilution method; assay type: functional; conditions: P373, 168 h
# [47] = test system: Acinetobacter baumannii; assay: Antibacterial activity against Acinetobacter baumannii A884 incubated for 24 h by agar dilution method; conditions: A884, 24 h
# [48] = test system: Acinetobacter baumannii; assay: Antibacterial activity against Acinetobacter baumannii A851 incubated for 24 h by agar dilution method; conditions: A851, 24 h
compound,measurement,setting,value
C[C@@H](O)[C@H]1C(=O)N2C(C(=O)O)=C(S[C@@H]3CN[C@H](C(=O)Nc4cccc(C(=O)O)c4)C3)[C@H](C)[C@H]12,MIC,[1],0.008 µg/mL
same,Ratio,[2],>16
same,Ratio,[3],4
same,Ratio,[4],2
same,Ratio,[5],4
same,MIC,[6],16 µg/mL
same,MIC,[7],0.008 µg/mL
same,Ratio,[8],2
same,Ratio,[9],4
same,Ratio,[10],4
same,Ratio,[11],8
same,Ratio,[12],4
same,Ratio,[13],2
same,Ratio,[14],>16
same,Ratio,[15],4
same,MIC,[16],0.008 µg/mL
same,Ratio,[17],4
same,Ratio,[18],2
same,Ratio,[19],8
same,Ratio,[20],16
same,Ratio,[21],4
same,Ratio,[22],4
same,Ratio,[23],4
same,Ratio,[24],4
same,Ratio,[25],16
same,Ratio,[26],4
same,MPC,[27],0.03 µg/mL
C[C@@H](O)[C@H]1C(=O)N2C(C(=O)O)=C(S[C@@H]3CN[C@H](CNS(N)(=O)=O)C3)[C@H](C)[C@H]12 [DORIPENEM],MIC,[28],0.5 µg/mL
same,MIC,[1],0.03 µg/mL
same,Ratio,[2],16
same,Ratio,[3],2
same,MIC,[29],8 µg/mL
same,Ratio,[4],4
same,MIC,[30],0.25 µg/mL
same,MIC,[31],4 µg/mL
same,Ratio,[5],2
same,MIC,[6],4 µg/mL
same,MIC,[7],0.03 µg/mL
same,Ratio,[8],2
same,Ratio,[9],4
same,Ratio,[10],2
same,MIC,[32],0.25 µg/mL
same,Ratio,[11],16
same,Ratio,[12],2
same,MIC,[33],1 µg/mL
same,Ratio,[13],2
same,Ratio,[14],4
same,Ratio,[15],>16
same,MPC,[34],64 µg/mL
same,MIC,[35],1 µg/mL
same,MPC,[36],64 µg/mL
same,MIC,[16],0.06 µg/mL
same,MIC,[37],2 µg/mL
same,Ratio,[17],2
same,MPC,[38],64 µg/mL
same,MIC,[39],0.5 µg/mL
same,Ratio,[18],2
same,Ratio,[19],>16
same,Ratio,[20],2
same,Ratio,[21],2
same,Ratio,[22],>16
same,MIC,[40],0.5 µg/mL
same,MIC,[41],4 µg/mL
same,Ratio,[23],2
same,Ratio,[24],2
same,MIC,[42],0.5 µg/mL
same,MIC,[43],0.25 µg/mL
same,Ratio,[25],4
same,MIC,[44],4 µg/mL
same,MIC,[45],4 µg/mL
same,MIC,[46],0.5 µg/mL
same,Ratio,[26],2
same,MIC,[47],2 µg/mL
same,MIC,[48],4 µg/mL
same,MPC,[27],0.125 µg/mL
C[C@@H](O)[C@H]1C(=O)N2C(C(=O)O)=C(SCCNC=N)C[C@H]12 [IMIPENEM ANHYDROUS],MPC,[34],64 µg/mL
same,MPC,[36],32 µg/mL
same,MPC,[38],64 µg/mL
same,MPC,[27],1 µg/mL
C[C@@H](O)[C@H]1C(=O)N2C(C(=O)O)=C(S[C@@H]3CN[C@H](C(=O)N(C)C)C3)[C@H](C)[C@H]12 [MEROPENEM],MIC,[28],1 µg/mL
same,MIC,[29],8 µg/mL
same,MIC,[30],0.5 µg/mL
same,MIC,[31],2 µg/mL
same,MIC,[32],0.25 µg/mL
same,MIC,[33],2 µg/mL
same,MIC,[35],2 µg/mL
same,MIC,[16],0.03 µg/mL
same,MIC,[37],2 µg/mL
same,MIC,[39],1 µg/mL
same,MIC,[40],1 µg/mL
same,MIC,[41],2 µg/mL
same,MIC,[42],0.5 µg/mL
same,MIC,[43],0.25 µg/mL
same,MIC,[44],8 µg/mL
same,MIC,[45],8 µg/mL
same,MIC,[46],0.5 µg/mL
same,MIC,[47],4 µg/mL
same,MIC,[48],4 µg/mL
same,MPC,[27],0.125 µg/mL
